Results published in patent publication US10656159B2, “Immunoassays of s-adenosylmethionine and methylation index in personalized medicine and health evaluation” (HUNAN SKYWORLD BIOTECHNOLOGIES CO, priority 2013, dated 2020).
Where “and” joins values, the source holds several entries; their conditions need not be identical. Equal values may be shown once. Entries after “also recorded” stand apart in the source; their conditions may differ.

Assays:
[1] = system: nucleolar 2-O-methyltransferase; details: cited from earlier work
[2] = cELISA sensitivity / SAH standard curve; assay type: binding; details: HRP-anti-301-1 1:1000, 0.5 μg/ml BSA-SAH coat
Procedure: The cELISA result from Table 1C with obtained from 0.5 μg/ml BSA-SAH coated micro-titer plate, HRP-anti-301-1 at dilution of 1:1000 in PBS incubation system. Different amounts of coating antigen, antibody, and incubating buffer will give slightly different minimum detection limits.

[3] = Dialysis of plasma: free and non-free SAM and SAH; assay type: in vitro ADME, human; details: for Amount left after dialysis: 37° C., 24 hour; for Non-free form left within the dialysis bag: dialysis 15° C., 24 hours, 20 mM phosphate buffer pH 7.4, bag MW 14,000
Procedure: To distinguish whether there are conjugated form of SAM and SAH in human plasma, we used dialysis bags to dialyze plasma samples at different temperature for 24 hours with at least two changes of dialyzing buffer (20 mM PB, pH7.4), then measured the SAM and SAH levels before and after dialysis.
Notice that for those SAH data which were greater than or equal to 1000 nM, only 1000 nM was used in the figure. Therefore, it is obvious that the immunoassays used in this invention can bind free SAM and SAH from human plasma. The differences of SAM or SAH as measured before and after dialysis (20 mM phosphate buffer, pH 7.4) for each sample represented the free SAM or SAH molecules that escaped from the dialysis bag (MW 14,000, Biosharp, USA) into the dialysis buffer, therefore they could not be detected from the sample collected from dialysis bag.
FIGS. 20A and 20B also show the percentages of SAM and SAH that were left within the dialysis bag after dialysis at 15° C. for 24 hours, which represented the amount of non-free SAM and SAH respectively.

[4] = Stability of SAM and SAH in plasma at different pH; assay type: in vitro ADME, human; details: for Level at 1 day time point: maximum detection limit 1000 nM; for Effect of pH on degradation: plasma, 15° C., pH 5.5-6.0, 7.0-7.5, 8.0-8.5
Procedure: The stability of SAM and SAH was also tested in acidic and basic conditions at 15° C. Normal mixed plasma sample (S8) (with pH 7.84), samples S1, S2, S3, S4 (pH 7.0-7.5) were used in the experiments. 10 μl 5M HCl was added to 1260 μl plasma to adjust its pH to 5.5-6.0. In another set of samples, 2 μl 5M NaOH was added to 1260 μl plasma to adjust its pH to 8.0-8.5. Before using these acidic or basic samples to conduct the immunoassay, 1.1 μl 5M NaOH was added to 180 μl acidic samples; 0.376 μl 5M HCl was added to 180 μl basic samples to make them neutral. Meanwhile, standards were also added the same amount of acid and base as the samples.
This observation was consistent with a prior publication regarding pH stability of SAM (Parks, L W, et al. jbc.org Aug. 23, 1957). […] However basic environment has a stronger impact than acidic environment. The SAH data at 1 day time point, the SAH levels for pH 7.0-7.5 and pH 5.5-6.0 curves were measured to be greater than 1000 nM. The experiment has maximum detection limit as 1000 nM, only 1000 nM points were plotted, therefore the spikes at 1 day time point could not been see for pH 7.0-7.5 and pH 5.5-6.0 curves. This figure is meant to show the dynamics of SAH level for this particular sample. Difference among samples exists.

[5] = Thermal stability of SAM and SAH in human plasma; assay type: in vitro ADME
Procedure: The stability of SAM and SAH at different temperatures, as well as their stability in acid and base environment were tested. The 310 human plasma samples were placed at room temperature for 2 hours. […] The increased SAH was due to de-methylation of SAM in ex vivi situation within a few hours of blood withdrawal.
Results from stability study for different temperature conditions, i.e. 4° C., 15° C. (room temperature), 37° C. and 56° C., were obtained mainly on SAM and partially on SAH measurements. Plasma from 4 individual samples S3, S4, S5 and S6 were used in 4° C., 15° C. and 37° C. experiments.
However, when samples were placed at room temperature (˜15° C.) and 37° C., SAM was degraded rapidly especially at 37° C., SAM degradation rate reached a maximum at about 4-6 hours under 37° C. […] At about 6 hours after blood withdrawal, SAM level was reduced whereas SAH level was increased. The values of SAH were recorded as >1000 nM from 6 hours to 3 days, thus SAH leaks were not shown. The level of SAH was maintained at a high level for about 3 days before it started to drop. SAM level went down continuously. […] It cannot be ruled out that inhibition of SAH converting to other metabolites or degradation also existed causing it to stay high for quite some time. It meant to show the dynamics of SAM and SAH for this particular sample. Difference among samples exists. Samples S1, S2, S3 and S4 were used in 56° C. experiments. The results are shown in FIG. 19F-G. SAM was quickly undetectable in 10 minutes at 56° C., whereas SAH was dramatically degraded in 10 minutes and fully undetectable after about 4 hours at 56° C.

[6] = oral, alcoholic liver cirrhosis, versus placebo; cited from earlier work
[7] = 310 human plasma samples, room temperature 2 hours versus 4° C.

Compound: C[S+](CC[C@H](N)C(=O)[O-])C[C@H]1O[C@@H](n2cnc3c(N)ncnc32)[C@H](O)[C@@H]1O (stereo partly drawn) [(S, S)-SAM-e]
- Binding tightness relative to (R, S)-SAM-e [1]: 10 fold

Compound: Nc1ncnc2c1ncn2[C@@H]1O[C@H](CSCC[C@H](N)C(=O)O)[C@@H](O)[C@H]1O [SAH, S-Adenosylhomocysteine]
- OD450 ([2]; SAH 3.906 nM): 0.7722 and 0.9144 and 0.7786
- OD450 Mean ([2]; SAH 3.906 nM): 0.8217
- OD450 ([2]; SAH 7.8125 nM): 0.7602 and 0.8113 and 0.7708
- OD450 Mean ([2]; SAH 7.8125 nM): 0.7808
- OD450 ([2]; SAH 15.625 nM): 0.8045 and 0.8273 and 0.7975
- OD450 Mean ([2]; SAH 15.625 nM): 0.8098
- OD450 ([2]; SAH 31.25 nM): 0.7285 and 0.8199 and 0.7545
- OD450 Mean ([2]; SAH 31.25 nM): 0.7676
- OD450 ([2]; SAH 62.5 nM): 0.6055 and 0.7115 and 0.6444
- OD450 Mean ([2]; SAH 62.5 nM): 0.6538
- OD450 ([2]; SAH 125 nM): 0.5421 and 0.6358 and 0.5372
- OD450 Mean ([2]; SAH 125 nM): 0.5717
- OD450 ([2]; SAH 250 nM): 0.4116 and 0.4426 and 0.442
- OD450 Mean ([2]; SAH 250 nM): 0.4321
- Amount left after dialysis [3]: trivial or no SAM and SAH left
- Non-free form left within the dialysis bag [3]: around 30%
- Level at 1 day time point ([4]; plasma pH 5.5-6.0, 15° C.): greater than 1000 nM
- Level at 1 day time point ([4]; plasma pH 7.0-7.5, 15° C.): greater than 1000 nM
- Effect of pH on degradation [4]: both acidic and basic environment speeded up plasma SAH degradation; also recorded: Both acid and base increased the speed SAH was degraded
- Increase of level [5, 7]: 21.05%±83.31%
- Time level was maintained at a high level before it started to drop ([5]; plasma, 15° C.): about 3 days
- Time to fully undetectable ([5]; plasma, 56° C.): about 4 hours

Compound: C[S+](CC[C@H](N)C(=O)O)C[C@H]1O[C@@H](n2cnc3c(N)ncnc32)[C@H](O)[C@@H]1O (some centres unmarked) [SAM, S-Adenosylmethionine]
- Amount left after dialysis [3]: trivial or no SAM and SAH left
- Non-free form left within the dialysis bag [3]: 11-25%
- Effect of pH on degradation [4]: degradation rate increased with pH values; also recorded: Low pH (acidic environment) helped prevent SAM from quick degradation
- Reduction of level [5, 7]: 33.81%±19.43%
- Stability ([5]; plasma, 37° C.): reduced quickly in all samples
- Time at which degradation rate reached a maximum ([5]; plasma, 37° C.): 4 to 6 h
- Stability ([5]; plasma, 56° C.): reduced even faster than at 37 °C
- Time to undetectable ([5]; plasma, 56° C.): 10 min
- Overall mortality and/or progression to liver transplant [6]: 12%
